Assay results from patent US6476065B2, “Discalamide compounds and their use as anti-proliferative agents” (priority 2000, dated 2002).

Columns and labels:
[1] = test system: P388 murine leukemia cell line; assay: P388 cytotoxicity (antiproliferative) MTT assay; assay type: cell-based; conditions: P388 murine leukemia cells, 48 hours exposure
Procedure: (§1) Compounds were analyzed as to their effects on proliferation of A549 human lung adenocarcinoma and P388 murine leukemia cell lines. P388 cells were obtained from Dr. R. Camalier, National Cancer Institute, Bethesda, Md., and A549 cells were obtained from American Type Culture Collection, Rockville, Md. All cell lines were maintained in Roswell Park Memorial Institute (RPMI) medium 1640 supplemented with 100 U/ml penicillin, […], 60 […], 18 mM HEPES, 0.05 mg/ml gentamicin (Life Technologies, Gaithersburg, Md.) and 10% fetal bovine serum and cultured in plastic tissue culture flasks at 37° C. in humidified air containing 5% CO2. Stock cultures of P388 cells were subcultured 1:20 in fresh tissue culture medium (TCM) every 2 to 3 days. Stock cultures of A549 cells were subcultured 1:10 every 3 to 4 days.
(§2) To assess the antiproliferative effects of agents against P388 cells, 200 μl cultures (96-well tissue culture plates, Nunc, Denmark) were established at 2×10^4 cells/ml in TCM or TCM containing the test agent at 0.03-5.0 μg/ml. After 48 hours exposure, P388 cells were enumerated using 3-[4,5-dimethylthiazol-2-yl]-2,5-diphenyltetrazolium bromide (MTT) as described in the literature (Alley, M. D. et al. [1988] Cancer Res. 48:589). A549 cells were enumerated in the same manner using 200 μl cultures established at 3×10^4 cells/ml and exposing the cultures to the test agents for 72 hours. The results were expressed as percent inhibition compared to the negative (no drug) control. Positive drug controls of varying dilutions of 5-fluorouracil and adriamycin (Sigma Chemical Co., St. Louis, Mo.) were included to monitor drug sensitivity of the cell line.
(§3) To quantitate the effects of compounds on cell proliferation and resulting IC50 values, 75 μl of warm growth media containing 5 mg/ml MTT is added to each well, cultures returned to the incubator, and left undisturbed for 3 hours. To spectrophotometrically quantitate formation of reduced formazan, plates are centrifuged (500×g, 10 minutes), culture fluids removed by aspiration, and 200 μl of acidified isopropanol (2 ml concentrated HC1/liter isopropanol) added per well. The absorbance of the resulting solutions is measured in a plate reader (Tecan Spectra SLT; TECAN U.S., Research Triangle Park, NC) at 570 nm with a 650 nm reference filter. The absorbance of tests wells is divided by the absorbance of drug-free wells, and the concentration of agent that results in 50% of the absorbance of untreated cultures (IC50) is determined by linear regression of logit-transformed data (Finney, D. J. [1978] Statistical Method in Biological Assay, third ed., pp.316-348, Charles Griffin Co., London). A linear relationship between tumor cell number and formazan production has been routinely observed over the range of cell densities observed in these experiments. The two standard drug controls (indicated above) are included in each assay as a check to monitor the drug sensitivity of each of the cell lines and IC50 values are determined for each drug-cell combination.

[2] = test system: A549 human lung adenocarcinoma cell line; assay: A549 cytotoxicity (antiproliferative) MTT assay; assay type: cell-based; conditions: A549 human lung adenocarcinoma cells, 72 hours exposure
Procedure: as §1, §2, §3

[3] = test system: NCI in vitro tumor cell line panel (approximately 60 cell lines); assay: National Cancer Institute's in vitro tumor cell line panel; assay type: cell-based, human
Source text: Discalamide A was additionally evaluated for its anti-proliferative effects utilizing the National Cancer Institute's in vitro tumor cell line panel. The results of these analyses are shown in the mean graphs presented as FIG. 3. The data are presented using known and accepted measurements of “lethal concentration-50” (LC50) where 50% of the cells are killed.

For `C=C1C[C@](OC)([C@H](O)C(=O)N[C@H]2OCO[C@H]3[C@@H]2O[C@H](CC(/C=C/C/C=C/C=C/C(=O)O)OC)C(C)(C)[C@@H]3OC)O[C@H](C)[C@@H]1C` (some centres unmarked) [2GP111 (Discalamide A), Discalamide A], the IC50 [1] was 0.1 nM, the IC50 [2] was 1.5 nM and the “effectiveness according to LC50 measurements for the NCI cell lines” value ([3]; HL-60(TB), K562, COLO 205, HCC-2998, SF-295, SNB-19, LOX IMVI, MALME-3M, M14, SK-MEL-2, SK-MEL-28, SK-MEL-5, UACC-257, CAKI-1, HS578T, MDA-MB-231/ATCC) was “particularly effective”. The “selective cytotoxicity by LC50 mean graphs (number of cell lines)” value ([3]; of approximately 60 cell lines tested, bars to the right of the midline, FIG. 3) was 16 cell lines.

For `C=C/C=C\[C@H](C)[C@H](OC(N)=O)[C@@H](C)[C@H](O)[C@@H](C)C/C(C)=C\[C@H](C)[C@@H](O)[C@@H](C)/C=C\[C@@H](O)C[C@@H]1OC(=O)[C@H](C)[C@@H](O)[C@H]1C` [Discodermolide], the IC50 ([1]; Mus musculus) was 55 nM and the IC50 [2] was 25 nM.

`COc1cc2c(cc1O)CCN[C@]21CS[C@@H]2c3c(OC(C)=O)c(C)c4c(c3[C@H](COC1=O)N1[C@@H]2[C@H]2c3c(cc(C)c(OC)c3O)C[C@@H]([C@@H]1O)N2C)OCO4` [Ecteinascidin 743] gave an IC50 [1] of 1.7 nM.

Molecule `C=C(CCC(C)C)COC(=O)[C@H](O)C/C=C\C[C@@H]1O[C@@H]2/C=C/C/C=C/C(C)=C\[C@H]3O[C@@H](C/C=C/C=C/C(=O)O[C@H](C2)[C@@]1(C)CO)C[C@H](O)[C@H]3C` [Lasonolide A] has an IC50 [1] of 2.8 nM and an IC50 [2] of 57 nM.

Molecule `C=C1C[C@](OC)([C@H](O)C(=O)N[C@H]2OCO[C@H]3[C@@H]2O[C@H](C[C@H](O)CO)C(C)(C)[C@@H]3OC)O[C@H](C)[C@@H]1C` [Mycalamide A] has an IC50 [1] of 5.2 nM and an IC50 [2] of 3.6 nM.

Molecule `C=C1C[C@](OC)([C@H](O)C(=O)N[C@H]2OCO[C@H]3[C@@H]2O[C@H](C[C@@H](CO)OC)C(C)(C)[C@@H]3OC)O[C@H](C)[C@@H]1C` [Mycalamide B] has an IC50 [1] of 1.3 nM and an IC50 [2] of 0.6 nM.

`C=C1C[C@](OC)([C@H](O)C(=O)N[C@H]2OCO[C@H]3[C@@H]2O[C@H](C[C@H](O)CCC/C=C/C=C/C=C/C(=O)N[C@@H](CCCNC(=N)N)C(=O)O)C(C)(C)[C@@H]3OC)O[C@H](C)[C@@H]1C` [Onnamide A] gave an IC50 [1] of 2.4 nM and an IC50 [2] of 170 nM.

Molecule “Discalamide A methylester [2GP313 (Discalamide A-methylester)]” has an IC50 [1] of 0.3 nM and an IC50 [2] of 0.8 nM.

Discalamide B [2GP311 (Discalamide B)] showed an IC50 [1] of 7.3 nM and an IC50 [2] of 3.2 nM.

Work on Ecteinascidin 729 yielded an IC50 [1] of 1.2 nM.
